Data on 26 compounds can be found in patent publication US12384780B2, “PARP1 inhibitors and uses thereof” (XinThera, Inc., priority 2022, dated 2025).

A value given as a limit tells only on which side of the number the result lay.

One assay deals with DLD-1 BRCA2(−/−) cells. Kind of assay: Cell growth inhibition assay (CellTiter-Glo), DLD-1 BRCA2(−/−). It is filed as cell-based. The settings on record: 200 cells/well, 7 days, CellTiter Glo 2.0; for EC50: Homo sapiens, DLD-1, 168 h, read-out: DLD-1 BRCA2(−/−) pEC50 (converted). The procedure:
(§1) Cell proliferation was measured through the cell viability assay using DLD-1 BRCA2(−/−) and parental isogenic pair and MDA-MB-436 (mutated BRCA1) cell lines. The CellTiter-Glo (CTG) based cell viability assay is designed to determine the number of viable cells in the culture because of compound effect, by quantifying ATP, which indicates the presence of metabolically active cells.
(§2) DLD-1 BRCA2(−/−) and parental isogenic pair were cultured in RPMI 1640 supplemented with […] (FBS), and […] cells were cultured in DMEM supplemented with 10% FBS. Both were cultured at 37° C. with […]. Invention compounds were distributed to the 384 well plate (Corning, 3764) using Echo acoustic liquid handler to form a 1:3 serially diluted final concentration with top dose of 10 or 30 μM. The cells were seeded into the plate in the density of 50 cells/well (DLD-1 parental), 200 cells/well (DLD-1 BRCA2−/−), or 500 cells/well (MDA-MB-436). After a short spun, the cells were cultured in a well moisturized incubator at 37° C. with 5% CO2 for 7 days without disturbance. The cell viability was measured by CellTiter Glo 2.0 assay kit (Promega, G9243), and growth inhibition rate was calculated and plotted against final compound concentration, and the data were fitted in Xfit to generate IC50 values.
In general terms: In ATP-based viability assays light output follows the ATP content of the culture.

Another assay concerns the target T1, PARP2 (Homo sapiens, UniProt Q9UGN5).
T1 construct: made in house
Put plainly: Biochemical fluorescent polarization (FP) assay, displacement of PARPi-FL, PARP2. It is filed as binding. The note with it: 20 nM protein, 3 nM PARPi-FL, 4 h at room temperature; read-out: FP PARP2 pIC50 (converted). The procedure:
(§3) Compounds were characterized using an assay measuring the displacement of a commercially available fluorescently labeled PARP 1/2 inhibitor (PARPi-FL, Tocris Biosciences, #6461) as exemplified in assays performed in WO2014/064149 and WO2021/013735A1. The assay was performed utilizing the following method: Compounds were dissolved in DMSO an Echo550 liquid handler was utilized to make serial dilations in the desired concentration range in Optiplate-384F plates. 100% DMSO was used for the high (with protein) and low (without protein) control samples. 20 nL of compound or DMSO alone was added to individual assay plate wells. PARP1 and PARP2 protein were expressed, purified, and diluted in assay buffer containing 50 mM Tris pH 8.0, 0.001% Triton X-100, 10 mM MgCl2, 150 mM NaCl to a final concentration of 20 nM. The PARPi-FL was then added at a final concentration of 3 nM. The assay plate was centrifuged at 1000 rpm for 1 min and incubated for 4 h at room temperature. […] [formula]

For a further assay, the target named is T2, PARP1 (Homo sapiens, UniProt P09874).
T2 construct: made in house
T2 sequence (P09874 whole entry): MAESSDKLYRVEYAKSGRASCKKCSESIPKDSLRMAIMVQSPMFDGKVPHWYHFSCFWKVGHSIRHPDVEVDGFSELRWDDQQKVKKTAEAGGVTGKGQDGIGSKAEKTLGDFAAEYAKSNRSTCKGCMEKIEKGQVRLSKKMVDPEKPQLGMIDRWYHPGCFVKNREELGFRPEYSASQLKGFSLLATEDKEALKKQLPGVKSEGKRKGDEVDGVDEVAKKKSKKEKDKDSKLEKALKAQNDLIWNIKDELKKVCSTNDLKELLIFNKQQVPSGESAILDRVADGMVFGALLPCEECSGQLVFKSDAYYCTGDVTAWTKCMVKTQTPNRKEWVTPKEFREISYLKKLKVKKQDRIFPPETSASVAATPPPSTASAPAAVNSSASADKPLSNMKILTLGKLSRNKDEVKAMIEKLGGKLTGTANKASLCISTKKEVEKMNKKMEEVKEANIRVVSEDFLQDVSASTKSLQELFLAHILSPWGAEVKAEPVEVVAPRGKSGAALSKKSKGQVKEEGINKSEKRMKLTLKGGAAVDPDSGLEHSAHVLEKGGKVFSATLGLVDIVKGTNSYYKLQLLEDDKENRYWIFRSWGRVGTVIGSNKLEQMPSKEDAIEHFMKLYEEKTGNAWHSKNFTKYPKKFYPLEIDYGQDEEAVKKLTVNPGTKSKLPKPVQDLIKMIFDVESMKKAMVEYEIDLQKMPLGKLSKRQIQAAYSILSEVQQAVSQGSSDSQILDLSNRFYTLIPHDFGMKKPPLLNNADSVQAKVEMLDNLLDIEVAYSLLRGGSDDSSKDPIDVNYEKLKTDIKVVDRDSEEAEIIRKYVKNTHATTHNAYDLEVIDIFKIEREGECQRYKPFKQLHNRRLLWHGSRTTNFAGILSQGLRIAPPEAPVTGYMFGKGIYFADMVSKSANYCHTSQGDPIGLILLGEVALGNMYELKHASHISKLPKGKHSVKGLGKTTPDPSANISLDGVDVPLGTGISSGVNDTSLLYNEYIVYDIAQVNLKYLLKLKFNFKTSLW
Kind of assay: Biochemical fluorescent polarization (FP) assay, displacement of PARPi-FL, PARP1. Type of assay: binding. The settings on record: 20 nM protein, 3 nM PARPi-FL, 4 h at room temperature; for IC50: read-out: FP PARP1 pIC50 (converted). The procedure:
as §3

Assay [1] relates to MDA-MB-436 (mutated BRCA1) cells. Kind of assay: Cell growth inhibition assay (CellTiter-Glo), MDA-MB-436. Type of assay: cell-based. The note with it: 500 cells/well, 7 days, CellTiter Glo 2.0; for EC50: Homo sapiens, MDA-MB-436, 168 h, read-out: MDA-MB-436 pEC50 (converted). The procedure:
as §1, §2

T1 sequence (Q9UGN5 whole entry): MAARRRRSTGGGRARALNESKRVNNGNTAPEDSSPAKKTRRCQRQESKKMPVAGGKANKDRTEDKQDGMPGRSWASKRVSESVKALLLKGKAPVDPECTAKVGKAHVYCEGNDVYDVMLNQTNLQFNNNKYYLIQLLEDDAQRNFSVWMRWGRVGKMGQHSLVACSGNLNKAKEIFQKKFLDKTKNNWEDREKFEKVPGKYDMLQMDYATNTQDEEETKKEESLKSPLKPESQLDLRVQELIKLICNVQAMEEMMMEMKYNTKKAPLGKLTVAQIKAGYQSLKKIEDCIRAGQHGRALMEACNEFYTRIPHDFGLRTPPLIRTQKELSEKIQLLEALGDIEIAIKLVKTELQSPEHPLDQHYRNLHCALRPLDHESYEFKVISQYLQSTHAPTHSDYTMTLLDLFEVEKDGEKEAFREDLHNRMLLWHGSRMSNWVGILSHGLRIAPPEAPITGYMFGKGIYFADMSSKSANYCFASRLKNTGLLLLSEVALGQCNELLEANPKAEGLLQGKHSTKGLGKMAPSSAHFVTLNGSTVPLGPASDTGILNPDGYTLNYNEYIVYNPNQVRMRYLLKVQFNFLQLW

`CCc1cc2ncc(CN3CCN(c4ccc(C#N)nc4)[C@H]4C[C@H]43)cc2[nH]c1=O` (single isomer, unassigned) [Example 14]: the EC50 was 0.0631 µM with DLD-1 BRCA2(−/−) cells and 0.0501 µM in assay [1]. The IC50 at PARP2 is 6.31 µM; on PARP1, 0.00501 µM.
In the case of `Cc1cc2ncc(CN3CCN(c4ccc(C#N)nc4C4CC4)CC3)cc2[nH]c1=O` [Example 27], the EC50 in the assay on DLD-1 BRCA2(−/−) cells is 0.0126 µM; in assay [1] it was 0.0398 µM. Further, the IC50 at PARP2 was above 100 µM; on PARP1, 0.00794 µM.
Regarding `Cc1cc2ncc(CN3CCN(c4ncc(F)cc4F)CC3)cc2[nH]c1=O` [Example 26], the EC50 (with DLD-1 BRCA2(−/−) cells; in assay [1]) was above 1 µM each time. Further, the IC50 was above 100 µM at PARP2 and above 0.1 µM on PARP1.
For `Cc1cc2ncc(CN3CCN(c4ccc(C#N)nc4)CC3)cc2[nH]c1=O` [Example 11], the values for the EC50 (in the assay on DLD-1 BRCA2(−/−) cells; in assay [1]) were 0.02 µM and 0.0398 µM, respectively. Moreover, the values for the IC50 on PARP2 and on PARP1 were 79.4 µM and 0.01 µM, respectively.
Consider `Cc1cc2ncc(CN3CCN(c4ccc(F)cc4C#N)CC3)cc2[nH]c1=O` [Example 35], for which the EC50 is 0.00316 µM in the assay with DLD-1 BRCA2(−/−) cells and 0.00251 µM in assay [1]. Moreover, the IC50 was 63.1 µM at PARP2 and 0.01 µM on PARP1.
For `Cc1cc2ncc(CN3CCN(c4ccc(C#N)cc4)CC3)cc2[nH]c1=O` [Example 43] the same measures were 0.00316 µM, 0.00251 µM, 6.31 µM and 0.00501 µM.
With `Cc1cc2ncc([C@@H](C)N3CCN(c4ccc(C#N)cn4)[C@H](C)C3)cc2[nH]c1=O` (single isomer, unassigned) [Example 28, rel-6-[(2R)-2-methyl-4-[(1R*)-1-(7-methyl-6-oxo-5H-1,5-naphthyridin-3-yl)ethyl]piperazin-1-yl]pyridine-3-carbonitrile], the EC50 (with DLD-1 BRCA2(−/−) cells; in assay [1]) was 0.0631 µM each time. The IC50 is above 100 µM at PARP2 and above 0.1 µM on PARP1.
For `N#Cc1ccc(N2CCN(Cc3cnc4cc(C(F)F)c(=O)[nH]c4c3)CC2)cc1` [Example 59], the EC50 in the assay with DLD-1 BRCA2(−/−) cells was 0.00126 µM; in assay [1], 0.001 µM. Besides, the IC50 on PARP2 is above 100 µM; on PARP1, 0.00631 µM.
Turning to `N#Cc1ccc(N2CCN(Cc3cnc4cc(C(F)F)c(=O)[nH]c4c3)CC2)nc1` [Example 48, 6-(4-{[7-(difluoromethyl)-6-oxo-5H-1,5-naphthyridin-3-yl]methyl}piperazin-1-yl)pyridine-3-carbonitrile], the EC50 (in the assay on DLD-1 BRCA2(−/−) cells; in assay [1]) was 0.001 µM throughout. Further, the IC50 at PARP2 is 1.26 µM; at PARP1, 0.00398 µM.
Turning to `N#Cc1ccc(N2CCN(Cc3cnc4cc(Cl)c(=O)[nH]c4c3)CC2)c(Cl)n1` [Example 77], the EC50 (with DLD-1 BRCA2(−/−) cells; in assay [1]) was 0.000794 µM throughout. Further, the values for the IC50 at PARP2 and on PARP1 were above 100 µM and 0.00631 µM, respectively.
For `CCc1cc2ncc(CN3CCN(c4ccc(C#N)cc4)CC3)cc2[nH]c1=O` [Example 9], the EC50 (in the assay on DLD-1 BRCA2(−/−) cells; in assay [1]) was 0.000501 µM throughout. Besides, the IC50 at PARP2 was 1.58 µM; on PARP1, 0.00631 µM.
As to `N#Cc1ccc(N2CCN(Cc3cnc4cc(C5CCCO5)c(=O)[nH]c4c3)CC2)nc1` (single isomer, unassigned) [Example 69, 6-(4-{[6-oxo-7-(oxolan-2-yl)-5H-1,5-naphthyridin-3-yl]methyl}piperazin-1-yl)pyridine-3-carbonitrile], the “DLD-1 BRCA2(−/−) pEC50” value in the assay on DLD-1 BRCA2(−/−) cells was 7.4. Moreover, the IC50 on PARP2 is 39.8 µM; at PARP1, 0.01 µM. In addition, the “MDA-MB-436 pEC50” value in assay [1] was determined as 7.8.
On to `N#Cc1ccc(N2CCN(Cc3cnc4cc(C5CCCO5)c(=O)[nH]c4c3)CC2)nc1` (single isomer, unassigned) [Example 68, 6-(4-{[6-oxo-7-(oxolan-2-yl)-5H-1,5-naphthyridin-3-yl]methyl}piperazin-1-yl)pyridine-3-carbonitrile], for which the EC50 was 0.0398 µM with DLD-1 BRCA2(−/−) cells and 0.0251 µM in assay [1]. The IC50 at PARP2 is 79.4 µM; on PARP1 it was 0.0126 µM.
Turning to `Cc1cc2ncc(CN3CCN(c4cc(F)c(F)cn4)CC3)cc2[nH]c1=O` [Example 58], the EC50 (in the assay on DLD-1 BRCA2(−/−) cells; in assay [1]) was 0.00794 µM in each case. Moreover, the IC50 at PARP2 was 15.8 µM; at PARP1, 0.0126 µM.
Take `N#Cc1ccc(N2CCN(Cc3cnc4cc(C5CC5)c(=O)[nH]c4c3)[C@H]3C[C@H]32)nc1` (single isomer, unassigned) [Example 20]: the figures for the EC50 (in the assay on DLD-1 BRCA2(−/−) cells; in assay [1]) were 0.0501 µM and 0.0398 µM, respectively. In addition, the IC50 on PARP2 is 2.51 µM; on PARP1, 0.00501 µM.
`O=c1[nH]c2cc(CN3CCN(c4ccc(F)cn4)CC3)cnc2cc1C1CC1` [Example 16, 3-cyclopropyl-7-{[4-(5-fluoropyridin-2-yl)piperazin-1-yl]methyl}-1H-1,5-naphthyridin-2-one]: the EC50 (in the assay with DLD-1 BRCA2(−/−) cells; in assay [1]) was 0.01 µM in each case. In addition, the IC50 on PARP2 is 2.51 µM. At PARP1, the “FP PARP1 pIC50” value is listed as 8.5.
Turning to `CCc1cc2ncc(CN3CCN(c4cc(F)c(C#N)cc4F)CC3)cc2[nH]c1=O` [Example 41], the EC50 is 0.000794 µM with DLD-1 BRCA2(−/−) cells and 0.001 µM in assay [1]. For the same compound, the IC50 on PARP2 was 2 µM; at PARP1 it was 0.0126 µM.
On to `Cc1cc2ncc(CN3CCN(c4ccc(C#N)cc4F)CC3)cc2[nH]c1=O` [Example 18], for which the EC50 in the assay with DLD-1 BRCA2(−/−) cells was 0.00316 µM; in assay [1] it was 0.00251 µM. For the same compound, the IC50 on PARP2 was above 100 µM; on PARP1 it was 0.00501 µM.
Taken in the same sequence, the figures for `CCc1cc2ncc(CN3CCN(c4ccc(C#N)cn4)[C@H](C)C3)cc2[nH]c1=O` [Example 21] were 0.00794 µM, 0.0126 µM, 1.26 µM and 0.00501 µM.
Taken in the same sequence, the figures for `Cc1c(C(F)F)c(=O)[nH]c2cc(CN3CCN(c4ccc(C#N)cn4)CC3)cnc12` [Example 42, 6-(4-{[7-(difluoromethyl)-8-methyl-6-oxo-5H-1,5-naphthyridin-3-yl]methyl}piperazin-1-yl)pyridine-3-carbonitrile] were 0.002 µM, 0.001 µM, 0.316 µM and 0.0501 µM.
With `CCc1cc2ncc(CN3CCN(c4ccc(Br)cn4)CC3)cc2[nH]c1=O` [Example 7], the EC50 (with DLD-1 BRCA2(−/−) cells; in assay [1]) was 0.00631 µM in each case. The IC50 at PARP2 was above 100 µM; at PARP1, 0.0251 µM.
Consider `Cc1cc2ncc([C@H](C)N3CCN(c4ccc(C#N)cn4)CC3)cc2[nH]c1=O` (single isomer, unassigned) [Example 32], for which the EC50 in the assay on DLD-1 BRCA2(−/−) cells was 0.0126 µM; in assay [1], 0.00794 µM. Also, the figures for the IC50 on PARP2 and on PARP1 were above 100 µM and 0.00398 µM, respectively.
Taken in the same sequence, the figures for `[2H]C([2H])(c1cnc2cc(CC)c(=O)[nH]c2c1)N1CCN(c2ccc(F)cc2C#N)CC1` [Example 67] were 0.00158 µM, 0.00158 µM, 25.1 µM and 0.0158 µM.
For `CCc1cc2ncc(CN3CCN(c4ccc(F)nc4)CC3)cc2[nH]c1=O` [Example 34] the same measures were 0.0501 µM, 0.0398 µM, 50.1 µM and 0.01 µM.
Take `N#Cc1ccc(N2CCN(Cc3cnc4cc(Cl)c(=O)[nH]c4c3)CC2)c(F)n1` [Example 61]: the figures for the EC50 (in the assay with DLD-1 BRCA2(−/−) cells; in assay [1]) were 0.00316 µM and 0.002 µM, respectively. Further, the IC50 is above 100 µM on PARP2 and 0.00631 µM on PARP1.
For `N#Cc1ccc(N2CCN(Cc3cnc4cc(Br)c(=O)[nH]c4c3)CC2)nc1` [Example 60, 6-{4-[(7-bromo-6-oxo-5H-1,5-naphthyridin-3-yl)methyl]piperazin-1-yl}pyridine-3-carbonitrile] the same measures were 0.00158 µM, 0.00126 µM, 2 µM and 0.00631 µM.
